4 compounds from ChEMBL document CHEMBL1139605, “Novel ketal ligands for the glucocorticoid receptor: in vitro and in vivo activity” (Bioorg Med Chem Lett, 2005) can be followed below.

What is called EC50 is the concentration that produces a half-maximal response. One may read the IC50 as the midpoint of a concentration-inhibition curve. A higher IC50 goes with a need for much substance. By Inhibition is commonly meant the percentage by which the read-out fell short of the control. High values mean strong suppression, low ones little suppression. What is called bioavailability is dose-corrected exposure relative to a reference, in per cent. Higher therefore signals good availability. A word on the clearance: it is the volume of plasma or blood freed of the substance per unit of time. A high value points to a high capacity for elimination. For orientation: half-life means how long it takes for the measured level to halve. A higher half-life goes with slow loss.

In series [1] the test system is A549. The series can be described thus: Effective concentration for inhibition of interleukin-6 in human A549 lung carcinoma cell line using 62% radiolabeled Dexamethasone. The format is functional, cell-based.
The species named for series [2] is Mus musculus. The series can be described thus: Effective concentration required for inhibition of interleukin-6 in mouse thioglycolate-elicited peritoneal exudate cell line using 69% radiolabeled Dexamethasone. The format is functional.
For series [3], the target named is T1, Glucocorticoid receptor (Homo sapiens, UniProt P04150).
T1 sequence (P04150 whole entry): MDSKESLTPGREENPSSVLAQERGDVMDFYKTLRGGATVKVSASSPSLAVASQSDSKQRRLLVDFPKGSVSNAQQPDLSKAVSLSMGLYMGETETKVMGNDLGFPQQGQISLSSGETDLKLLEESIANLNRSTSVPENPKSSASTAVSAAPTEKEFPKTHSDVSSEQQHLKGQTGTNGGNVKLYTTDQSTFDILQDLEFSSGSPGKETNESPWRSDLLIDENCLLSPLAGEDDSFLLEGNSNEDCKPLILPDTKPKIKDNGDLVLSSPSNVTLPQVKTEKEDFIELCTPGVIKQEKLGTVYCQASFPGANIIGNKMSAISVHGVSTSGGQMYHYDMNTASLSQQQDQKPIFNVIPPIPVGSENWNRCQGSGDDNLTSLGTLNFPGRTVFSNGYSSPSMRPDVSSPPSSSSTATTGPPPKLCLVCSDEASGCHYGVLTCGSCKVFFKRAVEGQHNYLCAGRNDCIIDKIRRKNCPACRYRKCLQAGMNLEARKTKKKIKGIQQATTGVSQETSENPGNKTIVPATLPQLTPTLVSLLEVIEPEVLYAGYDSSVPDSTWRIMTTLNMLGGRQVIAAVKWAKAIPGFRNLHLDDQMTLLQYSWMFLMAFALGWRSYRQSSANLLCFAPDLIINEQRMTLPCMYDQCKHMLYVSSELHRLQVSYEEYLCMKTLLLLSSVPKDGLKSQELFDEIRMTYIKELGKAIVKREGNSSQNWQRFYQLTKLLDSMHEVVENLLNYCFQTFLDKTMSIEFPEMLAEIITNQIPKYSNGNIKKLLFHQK
The series can be described thus: Inhibition of human glucocorticoid receptor alpha isoform.

The test system of series [4] is A549. The series can be described thus: Effective concentration for inhibition of interleukin-6 in human A549 lung carcinoma cell line using 35% radiolabeled Dexamethasone. The class given is functional, cell-based.
In another series the target is T2, Progesterone receptor (Homo sapiens, UniProt P06401).
T2 sequence (P06401 whole entry): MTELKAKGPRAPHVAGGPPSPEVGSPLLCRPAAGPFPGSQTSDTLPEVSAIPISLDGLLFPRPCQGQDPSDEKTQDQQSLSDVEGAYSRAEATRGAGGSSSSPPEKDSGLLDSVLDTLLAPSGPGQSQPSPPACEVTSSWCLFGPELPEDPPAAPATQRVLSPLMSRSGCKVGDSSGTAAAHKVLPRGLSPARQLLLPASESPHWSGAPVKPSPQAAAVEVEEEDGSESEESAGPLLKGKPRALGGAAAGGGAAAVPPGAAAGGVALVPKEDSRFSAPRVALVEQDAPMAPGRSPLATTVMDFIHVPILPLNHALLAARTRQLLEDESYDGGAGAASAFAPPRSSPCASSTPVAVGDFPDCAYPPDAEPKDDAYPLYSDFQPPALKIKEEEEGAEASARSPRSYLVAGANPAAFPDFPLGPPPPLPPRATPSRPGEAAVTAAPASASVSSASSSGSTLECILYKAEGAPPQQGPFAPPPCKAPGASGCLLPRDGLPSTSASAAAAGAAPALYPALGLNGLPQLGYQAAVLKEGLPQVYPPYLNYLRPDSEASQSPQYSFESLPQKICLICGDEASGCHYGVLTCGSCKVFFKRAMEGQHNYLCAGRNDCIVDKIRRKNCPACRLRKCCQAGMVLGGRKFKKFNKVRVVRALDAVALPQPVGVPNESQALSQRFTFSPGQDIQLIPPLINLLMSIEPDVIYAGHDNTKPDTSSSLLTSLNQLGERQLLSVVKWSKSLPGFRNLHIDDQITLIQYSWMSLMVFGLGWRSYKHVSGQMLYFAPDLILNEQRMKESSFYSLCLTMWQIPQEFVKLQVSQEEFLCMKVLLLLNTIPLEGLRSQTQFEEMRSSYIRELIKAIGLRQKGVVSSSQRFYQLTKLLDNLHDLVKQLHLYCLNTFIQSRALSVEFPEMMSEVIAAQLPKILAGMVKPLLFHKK
The series can be described thus: Binding affinity for human progesterone receptor.

Series [5] in a line: Volume of distribution in mouse at 2 mg/kg i.v. administration. The format is ADME, organism-based. Also noted: dose 2 mg/kg, route intravenous. The conditions noted are these: in vivo, iv, read-out: Volume of distribution.
For series [6], the system named is Mus musculus. The series can be described thus: Inhibition of LPS induced TNF-alpha secretion in mouse at an oral dose of 30 mg/kg relative to that produced by Dexamethasone at a dose of 0.3 mg/kg. The class given is functional.
The nature of series [7]: Bioavailability in mouse (dose 10 mg/kg p.o.). The class given is ADME, organism-based. Particulars: in vivo, po.
Series [8] is described as follows: Clearance data in mouse at 2 mg/kg i.v. administration. The format is ADME, organism-based. Also noted: dose 2 mg/kg, route intravenous. Particulars: in vivo, iv.
A further series has as its target T3, Estrogen receptor (Homo sapiens, UniProt P03372).
T3 sequence (P03372 whole entry): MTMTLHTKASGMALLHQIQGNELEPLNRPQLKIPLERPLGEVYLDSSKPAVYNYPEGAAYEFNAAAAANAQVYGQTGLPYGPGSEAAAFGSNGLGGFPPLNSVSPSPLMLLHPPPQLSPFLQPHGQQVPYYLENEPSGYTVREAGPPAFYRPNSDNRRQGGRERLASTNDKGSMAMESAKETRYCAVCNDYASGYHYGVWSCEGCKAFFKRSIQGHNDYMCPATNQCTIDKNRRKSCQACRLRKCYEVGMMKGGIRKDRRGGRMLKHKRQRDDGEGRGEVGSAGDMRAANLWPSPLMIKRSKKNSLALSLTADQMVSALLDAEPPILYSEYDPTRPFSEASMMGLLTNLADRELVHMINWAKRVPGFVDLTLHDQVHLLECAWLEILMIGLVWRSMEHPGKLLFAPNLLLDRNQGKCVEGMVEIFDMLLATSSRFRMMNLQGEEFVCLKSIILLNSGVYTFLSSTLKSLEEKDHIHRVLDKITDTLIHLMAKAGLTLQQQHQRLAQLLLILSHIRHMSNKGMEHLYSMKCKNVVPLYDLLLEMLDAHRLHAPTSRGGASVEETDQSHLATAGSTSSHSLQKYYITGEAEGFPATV
The series can be described thus: Binding affinity for human estrogen receptor alpha.

Another series addresses Estrogen receptor beta (Homo sapiens, UniProt Q92731). The series can be described thus: Binding affinity for human estrogen receptor beta.
The species entered for series [9] is Mus musculus. The series can be described thus: Effective concentration required for inhibition of interleukin-6 in mouse thioglycolate-elicited peritoneal exudate cell line using 56% radiolabeled Dexamethasone. The class given is functional.
Series [10] is filed under the species Mus musculus. The series can be described thus: Effective concentration required for interleukin-6 transrepression in peritoneal exudate cells of C57B1/6 mouse using 56% Dexamethasone. The class given is functional, cell-based.
Series [11] has as its target T4, Mineralocorticoid receptor (Rattus norvegicus, UniProt P22199).
T4 sequence (P22199 whole entry): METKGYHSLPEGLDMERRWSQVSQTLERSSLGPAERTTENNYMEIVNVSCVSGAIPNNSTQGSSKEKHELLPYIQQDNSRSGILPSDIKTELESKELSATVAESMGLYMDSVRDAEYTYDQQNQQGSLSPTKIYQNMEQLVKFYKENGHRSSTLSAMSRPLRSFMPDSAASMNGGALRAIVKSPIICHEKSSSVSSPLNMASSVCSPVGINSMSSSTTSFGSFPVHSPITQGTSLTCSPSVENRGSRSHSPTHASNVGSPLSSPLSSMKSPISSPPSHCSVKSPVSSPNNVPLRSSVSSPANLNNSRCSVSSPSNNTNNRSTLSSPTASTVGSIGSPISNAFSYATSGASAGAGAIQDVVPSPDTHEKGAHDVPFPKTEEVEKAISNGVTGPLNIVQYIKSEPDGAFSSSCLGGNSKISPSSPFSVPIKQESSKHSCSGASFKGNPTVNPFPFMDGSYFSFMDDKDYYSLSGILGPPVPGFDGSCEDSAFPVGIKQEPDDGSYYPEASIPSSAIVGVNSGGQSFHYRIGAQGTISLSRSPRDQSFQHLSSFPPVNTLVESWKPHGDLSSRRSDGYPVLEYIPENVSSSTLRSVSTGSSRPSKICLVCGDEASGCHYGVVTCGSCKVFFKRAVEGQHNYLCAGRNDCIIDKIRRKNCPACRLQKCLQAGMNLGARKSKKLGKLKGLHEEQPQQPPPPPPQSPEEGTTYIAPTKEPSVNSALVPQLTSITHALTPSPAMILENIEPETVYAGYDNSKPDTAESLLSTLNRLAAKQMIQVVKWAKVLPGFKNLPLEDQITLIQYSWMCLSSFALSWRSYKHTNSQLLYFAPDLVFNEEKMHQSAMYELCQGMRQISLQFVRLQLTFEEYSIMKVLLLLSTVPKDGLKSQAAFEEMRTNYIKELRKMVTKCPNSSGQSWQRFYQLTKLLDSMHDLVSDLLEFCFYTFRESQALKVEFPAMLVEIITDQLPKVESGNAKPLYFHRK
The series can be described thus: Binding affinity for rat mineralocorticoid receptor.

In series [12] the target is T1, Glucocorticoid receptor. The series can be described thus: Binding affinity for human glucocorticoid receptor.
Series [13] concerns A549. The series can be described thus: Effective concentration for inhibition of interleukin-6 in human A549 lung carcinoma cell line using 58% radiolabeled Dexamethasone. The format is functional, cell-based.
Series [14] is described as follows: Half life time in mouse at 2 mg/kg i.v. administration. The format is ADME, organism-based. Also noted: dose 2 mg/kg, route intravenous. Particulars: in vivo, iv.
For series [15], the species on record is Mus musculus. The series can be described thus: Effective concentration required for inhibition of interleukin-6 in mouse thioglycolate-elicited peritoneal exudate cell line using 85% radiolabeled Dexamethasone. The format is functional.
Series [16] can be described thus: Effective concentration required for induction of glutamine synthetase in human skeletal muscle cells using 0% radiolabeled Dexamethasone. The format is functional.
Series [17] concerns A549. The series can be described thus: Effective concentration for inhibition of interleukin-6 in human A549 lung carcinoma cell line using 67% radiolabeled Dexamethasone. The class given is functional, cell-based.

A value given as a limit tells only on which side of the number the result lay.

Sequence of Estrogen receptor beta (Q92731 whole entry): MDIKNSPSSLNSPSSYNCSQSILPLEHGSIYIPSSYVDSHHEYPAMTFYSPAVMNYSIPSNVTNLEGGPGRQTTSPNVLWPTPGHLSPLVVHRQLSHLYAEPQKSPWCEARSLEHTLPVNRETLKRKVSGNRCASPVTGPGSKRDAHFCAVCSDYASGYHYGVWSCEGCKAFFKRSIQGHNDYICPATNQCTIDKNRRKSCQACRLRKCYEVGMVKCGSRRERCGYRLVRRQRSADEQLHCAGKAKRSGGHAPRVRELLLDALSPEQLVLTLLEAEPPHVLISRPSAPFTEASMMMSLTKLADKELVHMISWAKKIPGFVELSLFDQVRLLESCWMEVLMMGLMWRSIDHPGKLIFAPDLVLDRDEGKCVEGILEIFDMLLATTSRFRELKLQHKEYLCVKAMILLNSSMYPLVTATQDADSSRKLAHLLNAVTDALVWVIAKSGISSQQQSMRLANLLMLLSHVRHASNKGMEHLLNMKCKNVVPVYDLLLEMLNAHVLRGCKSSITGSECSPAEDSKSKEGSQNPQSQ

Regarding `COC[C@H]1OC2(CCC3=Cc4c(cnn4-c4ccc(F)cc4)C[C@@]32C)O[C@@H]1COC`, the EC50 is 8.3 nM with A549 [1] and 10 nM in the series listed under Mus musculus [2]. On Glucocorticoid receptor [3], this compound had an IC50 of 26 nM.
For `C[C@H]1CCO[C@]2(CCC3=Cc4c(cnn4-c4ccc(F)cc4)C[C@@]32C)O1`, in the series with A549 [4], the EC50 came to 0.53 nM. Half-maximal inhibition against Glucocorticoid receptor [3] (IC50) was put at 21 nM.
With `C=C[C@H]1OC2(CCC3=Cc4c(cnn4-c4ccc(F)cc4)C[C@@]32C)O[C@@H]1C=C`, the IC50 is above 1000 nM on Progesterone receptor; above 10000 nM at Estrogen receptor; above 10000 nM at Estrogen receptor beta; above 10000 nM in series [11]; 8 nM at Glucocorticoid receptor [12]; 8 nM against Glucocorticoid receptor [3]. The Vd in [5] was found to be 15.3 L/kg. The compound further returned an Inhibition in the series with Mus musculus [6] of 96.8%. In series [7], the bioavailability was found to be 14.3%. The same compound displayed a clearance in series [8] of 114 mL/min/kg. Moreover, the EC50 is 61 nM in the series listed under Mus musculus [9], 61 nM in the series listed under Mus musculus [10] and 2.6 nM in the series with A549 [13]. Further, in series [14], the half-life was 2.3 h.
Turning to `C[C@]12Cc3cnn(-c4ccc(F)cc4)c3C=C1CCC21O[C@H](c2ccccc2)[C@@H](c2ccccc2)O1`, the EC50 in the series listed under Mus musculus [15] came to 60 nM; in series [16], 10 nM; in the series with A549 [17], 10 nM. Also, half-maximal inhibition against Glucocorticoid receptor [3] (IC50) required 10 nM.
